The NIST ThermoML archive (doi:10.1021/je9005882)

Experiment: excess molar enthalpy (molar enthalpy of mixing); xn = mol fraction of the nth substance listed
Conditions: 303.15 K, 101 kPa, Liquid

BrCBr [dibromomethane] + CO
Conditions	excess molar enthalpy [kcal/mol]
x1 = 0.1506	0.0433
x1 = 0.2779	0.0978
x1 = 0.3148	0.113
x1 = 0.4026	0.138
x1 = 0.504	0.153
x1 = 0.6195	0.169
x1 = 0.7224	0.187
x1 = 0.921	0.154
x1 = 0.9515	0.111
x1 = 0.9781	0.0583

BrCBr [dibromomethane] + C[S+](C)[O-]
Conditions	excess molar enthalpy [kcal/mol]
x1 = 0.062	-0.0507
x1 = 0.1162	-0.0856
x1 = 0.2682	-0.175
x1 = 0.3407	-0.201
x1 = 0.4342	-0.227
x1 = 0.503	-0.24
x1 = 0.5251	-0.242
x1 = 0.6466	-0.228
x1 = 0.7285	-0.202
x1 = 0.8234	-0.152
x1 = 0.8934	-0.103

BrCBr [dibromomethane] + O=C1CCCN1
Conditions	excess molar enthalpy [kcal/mol]
x1 = 0.0955	-0.0918
x1 = 0.151	-0.134
x1 = 0.2158	-0.177
x1 = 0.2999	-0.216
x1 = 0.4044	-0.246
x1 = 0.5247	-0.241
x1 = 0.613	-0.22
x1 = 0.7203	-0.174
x1 = 0.7913	-0.127
x1 = 0.8401	-0.0968
x1 = 0.9084	-0.0507

BrCBr [dibromomethane] + c1ccccc1
Conditions	excess molar enthalpy [kcal/mol]
x1 = 0.0931	0.00956
x1 = 0.253	0.0196
x1 = 0.3416	0.0241
x1 = 0.4618	0.0284
x1 = 0.5464	0.0318
x1 = 0.6705	0.0311
x1 = 0.7405	0.0304
x1 = 0.8394	0.0237
x1 = 0.9506	0.0098
